Measured values published in article PMC9849758, “Chemically diverse activity-based probes with unexpected inhibitory mechanisms targeting trypsin-like serine proteases” (Frontiers in Chemistry, 2023).
Entries after “also recorded” stand apart in the source; their conditions may differ. Where a name gives a salt, the structure may show the parent alone.

Assays:
Trypsin-3 [1] = target: T1, Trypsin-3 (Homo sapiens, UniProt P35030); assay: Kinetic progress curves (kapp, K1, KI*, mechanism); format: biochemical; parameters: purchased R&D; settings: for Trypsin-3 kapp: apparent second-order rate constant from progress curves; for Trypsin-3 kapp / Ki: mean ± SD; for Trypsin-3 mechanism of inhibition: defined by the progress curves: slow-binding (Rev.) or irreversible (Irrev.)
T1 sequence (P35030 1-304): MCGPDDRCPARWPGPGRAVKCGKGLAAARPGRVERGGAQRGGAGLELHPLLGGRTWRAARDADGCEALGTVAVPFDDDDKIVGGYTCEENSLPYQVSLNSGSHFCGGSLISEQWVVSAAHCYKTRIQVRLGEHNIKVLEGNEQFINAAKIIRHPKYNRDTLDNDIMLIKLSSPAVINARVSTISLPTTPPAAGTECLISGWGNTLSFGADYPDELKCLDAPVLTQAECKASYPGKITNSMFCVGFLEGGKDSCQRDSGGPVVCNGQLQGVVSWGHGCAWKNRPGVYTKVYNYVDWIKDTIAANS
Experimental: Because the compounds described in this paper were previously described as irreversible inhibitors, the IC50 value is inversely correlated with the second-order rate constant of inactivation. For a simple pseudo-first-order inactivation process, the activity after incubation with inhibitor (vi) varies with the inhibitor concentration (i), as described in the following equation: vi=v0·e^−kit where v0 is the activity in the absence of an inhibitor, k is the second-order rate constant of inactivation, and t is the time. The inactivation rate constant was determined from the time course of inhibition.
Kinetic assays were performed in the following manner. The inhibitor was mixed with the substrate, and the buffer solution with the enzyme was added at the time zero. The progress curves show the release of pNA or AMC as a function of time. Initially, no inhibitor is bound to the enzyme, and the tangent to the progress curve (dA/dt) is proportional to the free enzyme concentration. The free enzyme concentration decreases over time due to inhibitor binding kinetics, as described above. Progress curves were recorded in pseudo-first-order conditions ([I]0>>[E]0) and with less than 10% conversion of the substrate during the entire time course. In these conditions, dA/dt decreases exponentially with time. The progress curves were fitted with the integrated rate equation with GraFit7 to yield a value for kobs, a pseudo-first-order rate constant. At=Ao+vs∙t+vi−vs∙1−e^−kobs∙t/kobs where At is the absorbance at time t, A0 is the absorbance at time zero, vi is the initial rate and vs is the velocity at the steady-state.
The apparent second-order rate constant (kapp) was calculated from the slope of the linear part of the plot of kobs vs. the inhibitor concentration ([I]0). In the case of competition between the inhibitor and the substrate, kapp is smaller than the “real” second-order rate constant k discussed above because a certain fraction of the enzyme is present as an enzyme-substrate complex. kapp depends on the substrate concentration used in the experiment, as described by [Lambeir et al. (1996)].
The apparent equilibrium constants were obtained from the following equations, vi/vo=1/1+I/K1; vS/vo=1/1+I/KI* where vi is the initial rate, vs is the steady-state velocity and vo is the uninhibited initial rate.

Trypsin-3 [2] = target: T1, Trypsin-3; assay: Jump dilution, determination of inhibition type; format: biochemical; parameters: purchased R&D; settings: inhibitor at 10 times IC50, 15 min, diluted 10-fold or 100-fold; Rev./Irrev.
Experimental: The dissociation of the enzyme-inhibitor complex was monitored by substrate hydrolysis over time ([Joossens et al., 2006]).
Because ABPs are designed to be irreversible serine protease inhibitors, the IC50 is exclusively used as a first discriminatory evaluation. When an inhibitor is irreversible, its IC50 value not only depends on the substrate and enzyme concentration but also on the time of incubation with the enzyme before the reaction is started by adding the substrate. […] The progress curve in the presence of an irreversible inhibitor will show final velocities equal to zero (Figure 6C). In contrast, for a reversible inhibitor, progress curves have a non-zero final steady-state velocity (Figure 6A) ([McWhirter, 2021]). To corroborate the inhibitory mechanism of the compounds, jump-dilution assays were performed. These use an inhibitor concentration of 10-fold the IC50 for the incubation, and a posteriori, the reaction mixture is diluted 10-fold or 100-fold before adding the substrate. In the case of an irreversible inhibitor, enzymatic activity is not regained (Figure 6D), whereas, in the case of a reversible compound, a slow release of the inhibitor and a gradual increase of the enzymatic activity rate is observed (Figure 6B) ([Copeland, 2013]; [McWhirter, 2021]). The jump-dilution assays confirmed the behavior described by the progress curves.
2.2.2 Jump dilution results
Supplementary Table 2. Jump dilution of selected alkyne and desthiobiotin probes against a panel of trypsin-like serine proteases. […]
# R R DtBa 3 tryptase Thrombin uPA CatG
32b H Alk Irrev. Irrev. Rev. Irrev. Rev.
45b DtB Irrev. Irrev. Rev. N.D. N.D.
33b Alk Irrev. Irrev. Rev. Irrev. Rev.
46b Cl DtB Irrev. Irrev. Rev. N.D. N.D.
34b H Alk Rev. Rev. Rev. Irrev. Rev.
50b DtB Rev. Rev. Rev. Irrev. Rev.
35b Alk Rev. Rev. Rev. Irrev. Rev.
52b NHCOMe DtB Rev. Rev. Rev. Irrev. Rev.
36b Alk Rev. Rev. Rev. Irrev. Rev.
54b Cl DtB Rev. Rev. Rev. Irrev. Rev.
37b Alk Irrev. Irrev. N.D. Irrev. Irrev.
55b H DtB Irrev. Irrev. N.D. Irrev. Irrev.
38b Alk Irrev. Irrev. N.D. Irrev. Irrev.
56b NHCOMe DtB Irrev. Irrev. N.D. Irrev. Irrev.
39b Alk Irrev. Irrev. N.D. Irrev. Rev.
57b Cl DtB Irrev. Irrev. N.D. Irrev. Rev.
41b H Alk Irrev. Irrev. Irrev. N.D. N.D.
31b Pro-Lys H Alk Irrev. Irrev. Irrev. Irrev. N.D. a Alk: ABP precursor bearing an alkyne; DtB: desthiobiotin probe b Panel of serine proteases abbreviations: urokinase plasminogen activator (uPA), cathepsin G (catG) N.D.: IC50 is greater than 10µM, and jump dilution was not performed
2.2.3 Progress curves and Jump dilution experiments
Kinetic assays were performed in the following manner. The inhibitor was mixed with the substrate, and the buffer solution with the enzyme was added at the time zero. The progress curves show the release of para-nitroaniline (pNA) or 7-amino-4-methyl coumarin (AMC) as a function of time.
To monitor the dissociation of the inhibitor-enzyme, aliquots of the enzyme were incubated at 37 °C without and with the inhibitor at a concentration 10 times higher than its IC 50. The enzyme […]
min, the aliquots were diluted 10-fold or 100-fold into the substrate concentration and assay buffer used for the IC50 determination. The dissociation of the enzyme-inhibitor complex was monitored by substrate hydrolysis over time. Blue lines represent the control where no inhibitor was present. Pink lines represent the assay with inhibitor.

[3] = Trypsin-3 K1, apparent equilibrium constant of the first step of slow-binding
[4] = Trypsin-3 KI*, apparent equilibrium constant of the overall process

SMILES	Trypsin-3 kapp (Trypsin-3 [1])	Trypsin-3 mechanism of inhibition (Trypsin-3 [1])	Trypsin-3 jump dilution result (Trypsin-3 [2])	Ki (Trypsin-3 [1]; [3])	Ki (Trypsin-3 [1]; [4])	selectivity for trypsin-3 over the other tested proteases (Trypsin-3 [1]; based on the kapp values)	selectivity for trypsin-3 over β-tryptase (Trypsin-3 [1]; based on the kapp values)	selectivity for trypsin-3 versus thrombin (Trypsin-3 [1]; based on the kapp values)	selectivity for trypsin-3 versus uPA (Trypsin-3 [1]; based on the kapp values)
C[C@@H]1NC(=O)N[C@@H]1CCCCCC(=O)NCCOCCOCCOCCn1cc(CCCOC(=O)NC(CCCNC(=N)N)P(=O)(Oc2ccccc2)Oc2ccccc2)nn1 (stereo partly shown) [45b]	17 × 10^2 ± 122 M^−1 s^−1	Irrev.	Irrev.						
CC(=O)Nc1ccc(OP(=O)(Oc2ccc(NC(C)=O)cc2)C(NC(=O)OCCCc2cn(CCOCCOCCOCCNC(=O)CCCCC[C@H]3NC(=O)N[C@H]3C)nn2)c2ccc(NC(=N)N)cc2)cc1 (stereo partly shown) [56b]	334 ± 85 M⁻¹ s⁻¹	Irrev.	Irrev.						
C#CCCCOC(=O)NC(c1ccc(NC(=N)N)cc1)P(=O)(Oc1ccc(NC(C)=O)cc1)Oc1ccc(NC(C)=O)cc1 (stereo not shown) [38b, Pent-4-yn-1-yl ((bis(4-acetamidophenoxy)phosphoryl)(4-guanidinophenyl)methyl) carbamate]	358 ± 6 M⁻¹ s⁻¹	Irrev.	Irrev.						
C[C@@H]1NC(=O)N[C@@H]1CCCCCC(=O)NCCOCCOCCOCCn1cc(CCCOC(=O)NC(c2ccc(NC(=N)N)cc2)P(=O)(Oc2ccc(Cl)cc2)Oc2ccc(Cl)cc2)nn1 (stereo partly shown) [57b]	13 × 10^2 ± 340 M^−1 s^−1	Irrev.	Irrev.						
C[C@@H]1NC(=O)N[C@@H]1CCCCCC(=O)NCCOCCOCCOCCn1cc(CCCOC(=O)NC(Cc2ccc(NC(=N)N)cc2)P(=O)(Oc2ccccc2)Oc2ccccc2)nn1 (stereo partly drawn) [50b, 3-(1-(18-((4R,5S)-5-methyl-2-oxoimidazolidin-4-yl)-13-oxo-3,6,9-trioxa-12-azaoctadecyl)-1H-1,2,3-triazol-4-yl)propyl (1-(diphenoxyphosphoryl)-2-(4-guanidinophenyl)ethyl)carbamate trifluoroacetate salt]	49 × 10^3 ± 2979 M^−1 s^−1	Rev.	Rev.	98 ± 22 nM	3 ± 0.2 nM				
C[C@@H]1NC(=O)N[C@@H]1CCCCCC(=O)NCCOCCOCCOCCn1cc(CCCOC(=O)NC(CCCNC(=N)N)P(=O)(Oc2ccc(Cl)cc2)Oc2ccc(Cl)cc2)nn1 (stereo partly shown) [46b]	92 × 10^2 ± 349 M^−1 s^−1	Irrev.	Irrev.						
C[C@@H]1NC(=O)N[C@@H]1CCCCCC(=O)NCCOCCOCCOCCn1cc(CCCOC(=O)NC(Cc2ccc(NC(=N)N)cc2)P(=O)(Oc2ccc(Cl)cc2)Oc2ccc(Cl)cc2)nn1 (stereo partly shown) [54b]		* ^d Rev.	Rev.	6 ± 0.5 nM	0.8 nM				
C#CCCCOC(=O)NC(Cc1ccc(NC(=N)N)cc1)P(=O)(Oc1ccc(Cl)cc1)Oc1ccc(Cl)cc1 (stereo not shown) [36b]	29 × 10^3 ± 6499 M^−1 s^−1	Rev.	Rev.	8 ± 0.8 nM	1 ± 0.1 nM				
C#CCCCOC(=O)NC(CCCNC(=N)N)P(=O)(Oc1ccccc1)Oc1ccccc1 (stereo not shown) [32b]	18 × 10^2 ± 66 M^−1 s^−1	Irrev.	Irrev.			at least 30 fold			
C#CCCCOC(=O)NC(Cc1ccc(NC(=N)N)cc1)P(=O)(Oc1ccc(NC(C)=O)cc1)Oc1ccc(NC(C)=O)cc1 (stereo not shown) [35b]		* ^d Rev.	Rev.	1 ± 0.1 nM	0.1 nM				
C#CCCCOC(=O)NC(CCCNC(=N)N)P(=O)(Oc1ccc(Cl)cc1)Oc1ccc(Cl)cc1 (stereo not shown) [33b]	35 × 10^2 ± 40 M^−1 s^−1	irreversibility; also recorded: Irrev	Irrev.						
C#CCCCOC(=O)NC(C1CCN(C(=N)N)CC1)P(=O)(Oc1ccccc1)Oc1ccccc1 (stereo not shown) [41b]	17 × 10^2 ± 142 M^−1 s^−1	irreversible inhibition; also recorded: Irrev	Irrev.						
C#CCCCOC(=O)NC(c1ccc(NC(=N)N)cc1)P(=O)(Oc1ccc(Cl)cc1)Oc1ccc(Cl)cc1 (stereo not shown) [39b, Pent-4-yn-1-yl ((bis(4-chlorophenoxy)phosphoryl)(4-guanidinophenyl)methyl)carbamate]		Irrev.	Irrev.						
C#CCCCOC(=O)NC(Cc1ccc(NC(=N)N)cc1)P(=O)(Oc1ccccc1)Oc1ccccc1 (stereo not shown) [34b]	40 × 10^3 ± 2642 M^−1 s^−1	reversible slow-binding and Rev.	Rev.	29 ± 5 nM	3 ± 0.3 nM		55 fold	over 2000 fold	5 fold
CC(=O)Nc1ccc(OP(=O)(Oc2ccc(NC(C)=O)cc2)C(Cc2ccc(NC(=N)N)cc2)NC(=O)OCCCc2cn(CCOCCOCCOCCNC(=O)CCCCC[C@H]3NC(=O)N[C@H]3C)nn2)cc1 (stereo partly shown) [52b]	86 × 10^3 ± 8250 M^−1 s^−1	Rev.	Rev.	17 ± 0.5 nM	1 nM				
C#CCCCOC(=O)NC(c1ccc(NC(=N)N)cc1)P(=O)(Oc1ccccc1)Oc1ccccc1.O=C(O)C(F)(F)F (stereo not shown) [37b, Pent-4-yn-1-yl ((diphenoxyphosphoryl)(4-guanidinophenyl)methyl)carbamate trifluoroacetate salt]	293 ± 34 M⁻¹ s⁻¹	Irrev.	Irrev.						
